Measurements taken from patent US5672603A, “Apoptosis regulating composition” (Otsuka Pharmaceutical Co., Ltd., priority 1991, dated 1997).

Assays:
[1] = tested on: human peripheral blood acute lymphocytic leukemia cells (Molt-4); assay: ATL-infected cell growth inhibition test: ATLV-noninfected cells; assay type: cell-based; conditions: for Number of ATLV-noninfected cells: 4 days, control 13.9
Method: Human peripheral blood acute lymphocytic leukemia cells (Molt-4) [J. Minowada, et al., J. Natl. Cancer Inst., 49, 891-895 (1972): ATCC CRL1582] were used to prepare a suspension of 1×10^5 cells/ml in RPMI-1640 medium (Gibco) supplemented 10% fetal calf serum (FCS, Gibco) for use as ATL virus-noninfected cells.
Compound 1 was dissolved in hydrochloric acid, diluted with the same medium as above, neutralized with 2N NaOH and adjusted to concentrations of 1 μg/ml, 10 μg/ml and 30 μg/ml.
The cells prepared in (a) and (b) above were respectively placed in wells of a 24-well culture plate (Nunc), followed by addition of the test compound prepared in (c) (final concentration: 1 μg/ml, 10 μg/ml or 30 μg/ml), and cultured at 37° C. in a 5% carbon dioxide incubator for 4 days. As a control, the medium without addition of the test compound was used. After completion of incubation, the cell suspension in each well was taken for determination of viable cells.

[2] = tested on: Human stomach cancer cells (KATO-III); assay: Cancer cell growth inhibition, KATO-III; assay type: cell-based; conditions: control 100
Method: The cell concentration was adjusted to 1×10^5 cells/ml using the same medium as used above in (1).
Test compound 1 was dissolved in acetic acid, followed by dilution with the same medium as used above in (1) and neutralization with 2N NaOH to give final concentrations of 100 μg/ml, 10 μg/ml and 1.0 μg/ml.
a) The test compound solutions prepared as described above under (3) were added to the HL-60 cell suspension prepared as described above under (1) to final concentrations of 10 μg/ml and 1.0 μg/ml. Using 12-well culture plates (Costar), cultivation was conducted in a 5% carbon dioxide gas incubator maintained at 37° C. for 3 to 4 days. The test compound-free medium was used as a control. Thereafter, the cell suspension in each well was sampled and mixed with 0.2% trypan blue-containing phosphate buffer, and unstained viable cells were counted under a microscope. Based on the counting result, the viable cell concentration was readjusted to 1×10^5 cells/ml, and cultivation was continued under the same conditions.
KATO-III cells prepared as described above under (2) were cultivated in the same manner.

[3] = tested on: Human transformed normal T cells (MT-4), HIV-infected; assay: Antiretrovirus activity test: viable HIV-infected MT-4 cells; assay type: cell-based; conditions: for Number of HIV-infected cells: 3 days, control 105
Method: Human transformed normal T cells (MT-4) [Nagumo, T. and Hoshino, H., Jpn. J. Cancer Res. 79, 9-11 (1988)] were used to prepare a suspension of 2×10^5 cells/ml in RPMI-1640 medium (Gibco) supplemented 10% FCS (Gibco).
Compound 1 was dissolved in hydrochloric acid, diluted in the same medium as above, neutralized with 2N NaOH and adjusted to concentrations of 1 μg/ml, 10 μg/ml, 30 μg/ml and 100 μg/ml.
The cells prepared in (a) above and the test compound (final concentration: 1 μg/ml, 10 μg/ml, 30 μg/ml or 100 μg/ml) prepared in (b) above were placed in the wells of a 12-well culture plate (Costar). Then, 50 μl/well of HIV suspension was added to infect the cells in each well, followed by 3-day incubation at 37° C. in a 5% carbon dioxide incubator. As a control, the medium without addition of the test compound was used. After completion of incubation, the cell suspension in each well was taken and viable cells were counted.

M12 melanoma cells = assay: M12 melanoma cell growth inhibition in nude mice; assay type: in vivo, Balb/c nude mice; conditions: 10 mg/kg daily oral, day 25 to day 55; FIG. 2; * p<0.05
Method: This study was performed in groups of 10 Balb/c nude mice.
On the first day of the experiment (day 0), 2×10^6 M12 melanoma cells were transplanted into mice in the test group. When the tumor volume reached 100 mm^3, the test Compound 1 was administered orally in doses of 10 mg/kg daily to the mice. This treatment was carried out 30 times from day 25 to day 55. The tumor diameter was measured using calipers everyday after transplantation of tumor cells. The tumor volume was calculated according to the following formula.
Tumor volume (mm^3)=(long diameter)×(short diameter)^2 ×1/2

HL-60 cells = assay: Differentiation inducing test: reactivity of HL-60 cells with monoclonal antibody FH-6 (sialyl Le^X); assay type: cell-based, human; conditions: 2 hours; for Positive rate (%), FH-6: control 95
Method: The monoclonal antibody FH-6 capable of recognizing sialyl Le^X was fluoresein (FITC)-labeled, and the reactivity between the active ingredient compound of the present invention and FH-6 was examined by flow cytometry as follows.
The test compound solutions prepared as described above under (3) were added to HL-60 cells prepared as described above under (1) to a final concentration of 1.0 μg/ml or 10 μg/ml. Cultivation was conducted in a 5% carbon dioxide gas incubator at 37° C. for 2 hours. Thereafter, the cell concentration was adjusted to 1 x 10^6 cells/ml and 100 μl of each aliquot was reacted with 10 μl of the fluorescein-labeled FH-6 solution, followed by flow cytometry.

CMK cells = assay: Morphological observation of CMK cells; assay type: cell-based, human; conditions: 30 μg/ml; 4 days
Method: CMK cells, 1×10^5 cells/ml, were incubated in 10% FCS-added RPMI-1640 medium containing Compound 1 for 4 days and observed for the morphology of cells under the phase contrast microscope. A portion of the cell population was taken and a cytospin preparation was prepared and stained with Wright-Giemsa stain for determination of the cell morphology.
Thus, FIGS. 4 and 6 are the phase constrast micrograph and stained map, respectively, of the medium control, and FIGS. 5 and 7 represent the corresponding figures for cells treated with 30 μg/ml of Compound 1.

`COc1ccc(C(=O)N2CCN(c3ccc4c(c3)CCC(=O)N4)CC2)cc1OC` [Compound 1, 6-[4-(3,4-Dimethoxybenzoyl)-1-piperazinyl]-3,4-dihydrocarbostyril] was tested, and the “Number of ATLV-noninfected cells” value ([1]; 1 μg/ml) was 13.9 ×10^5, the “Number of ATLV-noninfected cells” value ([1]; 10 μg/ml) was 12.2 ×10^5 and the “Number of ATLV-noninfected cells” value ([1]; 30 μg/ml) was 12.8 ×10^5. For the same compound, the “Effect on ATLV-noninfected cells (in words)” value ([1]; 1-30 μg/ml) was “does not affect ATLV-noninfected cells”, the activity at 1 µg/mL ([2]; 576 h, on day 24, 1.0 μg/ml) was 88 ± 2.3% and the activity at 10 µg/mL ([2]; 576 h, on day 24, 10 μg/ml) was 61 ± 1.5%. For the same compound, the activity at 1 µg/mL ([2]; 792 h, on day 33, 1.0 μg/ml) was 0%, the activity at 10 µg/mL ([2]; 792 h, on day 33, 10 μg/ml) was 0% and the “Inhibition of HIV-infected cell growth (in words)” value [3] was “inhibits cell growth”. For the same compound, the “Number of HIV-infected cells” value ([3]; 1 μg/ml) was 100 ×10^4, the “Number of HIV-infected cells” value ([3]; 10 μg/ml) was 88 ×10^4 and the “Number of HIV-infected cells” value ([3]; 30 μg/ml) was 78 ×10^4. For the same compound, the “Number of HIV-infected cells” value ([3]; 100 μg/ml) was 85 ×10^4, the “Growth of M12 melanoma cells (tumor volume)” value (M12 melanoma cells) was “significantly inhibits growth of M12 melanoma cells” and the “Sialic acid on HL-60 cell surface” value (HL-60 cells; 1.0 or 10 μg/ml) was “loss of sialic acid from the HL-60 cell surface”. The “Positive rate (%), FH-6” value (HL-60 cells; 1.0 μg/ml) was 82%, the “Positive rate (%), FH-6” value (HL-60 cells; 10 μg/ml) was 76% and the “Morphology, Wright-Giemsa stained map” value (CMK cells) was “budding of the cell membrane and lobulation of the nuclei”. The “Morphology, phase contrast micrograph” value (CMK cells) was “fragmentation of cells like in the process of platelet production”.
